pIC50: −log10 of the molar value.
Legend:
ErbB2 or EGFR = biological target: T1, ErbB2 or EGFR; assay: ErbB family substrate phosphorylation enzyme assay (HTRF), Method A or Method B; format: biochemical
T1 construct: enzymes purified from a baculovirus expression system; Reagent production was conducted essentially as described in Brignola, P. S., et al, (2002) J. Biol. Chem. 277(2): 1576-1585
In short: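 Baculovirus-expressed EGFR or ErbB2 (0.8 or 10 nM in enzyme mix) phosphorylates biotinylated Peptide C with 20 µM ATP and 0.8 µM peptide (substrate-mix levels), MnCl2, pH 7.5. Reaction ran 90 min at 20 °C with EDTA stop and HTRF anti-phosphotyrosine read. Method A: enzyme added last; Method B: 1 h enzyme–compound preincubation.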

[1] = test system: BT474 and HN5 tumor cell lines; assay: Methylene blue growth inhibition assay (cellular Method A); format: cell-based, Human; conditions: Homo sapiens, BT-474, 72 h, 3 days, read-out: Activity (Method): growth inhibition IC50 class
In short: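 Colo205, BT474 and HN5 cells in DMEM/10% FBS (BT474 10,000, HN5 3,000 cells/well) treated next day with compound in DMEM, 0.3% final DMSO, for 3 days at 37° C. Biomass stained with methylene blue, solubilized, read at OD 620; IC50 interpolated by nonlinear regression from % inhibition versus vehicle.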

[2] = Method A: substrate mix added first, reaction started with enzyme mix
[3] = Method B: enzyme mix pre-incubated with compound 1 hour at 20° C., started with substrate mix

| Compound | Activity (Method): pIC50 class against ErbB2 or EGFR (ErbB2 or EGFR; [2]) | pIC50 [1] | Activity (Method): pIC50 class against ErbB2 or EGFR (ErbB2 or EGFR; [3]) |
| --- | --- | --- | --- |
| O=C(Nc1cccc(-c2nn3ccccc3c2-c2ccnc(Nc3ccccc3)n2)c1)c1ccco1 [Example 137, Furan-2-carboxylic acid {3-[3-(2-phenylamino-pyrimidin-4-yl)-pyrazolo[1,5-a]pyridin-2-yl]-phenyl}-amide] | +++ (A) (at least one pIC50 measurement of greater than 7 against either ErbB2 or EGFR) | 6.00 to 7.00 | – |
| O=C(Nc1cccc(-c2nn3ccccc3c2-c2ccnc(Nc3ccccc3)n2)c1)c1cccnc1 [Example 138, N-{3-[3-(2-Phenylamino-pyrimidin-4-yl)-pyrazolo[1,5-a]pyridin-2-yl]-phenyl}-nicotinamide] | +++ (A) (at least one pIC50 measurement of greater than 7 against either ErbB2 or EGFR) | 6.00 to 7.00 | – |
| O=C(Nc1cccc(-c2nn3ccccc3c2-c2ccnc(Nc3ccccc3)n2)c1)c1cccs1 [Example 139] | ++ (A) (at least one pIC50 measurement greater than 6 against either ErbB2 or EGFR but no measurement greater than pIC50 of 7) | 6.00 to 7.00 | – |
| O=C(Nc1cccc(-c2nn3ccccc3c2-c2ccnc(Nc3ccccc3)n2)c1)c1ccccn1 [Example 140] | ++ (A) (at least one pIC50 measurement greater than 6 against either ErbB2 or EGFR but no measurement greater than pIC50 of 7) | 6.00 to 7.00 | – |
| Cc1cccc(C(=O)Nc2cccc(-c3nn4ccccc4c3-c3ccnc(Nc4ccccc4)n3)c2)c1 [Example 141, 3-Methyl-N-(3-{3-[2-(phenylamino)-4-pyrimidinyl]pyrazolo[1,5-a]pyridin-2-yl}phenyl)benzamide] | ++ (A) (at least one pIC50 measurement greater than 6 against either ErbB2 or EGFR but no measurement greater than pIC50 of 7) | 6.00 to 7.00 | – |
| Nc1cccc(C(=O)Nc2cccc(-c3nn4ccccc4c3-c3ccnc(Nc4ccccc4)n3)c2)c1 [Example 143, 3-Amino-N-(3-{3-[2-(phenylamino)-4-pyrimidinyl]pyrazolo[1,5-a]pyridin-2-yl}phenyl)benzamide] | +++ (A) (at least one pIC50 measurement of greater than 7 against either ErbB2 or EGFR) | 6.00 to 7.00 | – |
| Nc1ccc(C(=O)Nc2cccc(-c3nn4ccccc4c3-c3ccnc(Nc4ccccc4)n3)c2)cc1 [Example 144, 4-Amino-N-(3-{3-[2-(phenylamino)-4-pyrimidinyl]pyrazolo[1,5-a]pyridin-2-yl}phenyl)benzamide] | +++ (A) (at least one pIC50 measurement of greater than 7 against either ErbB2 or EGFR) | 6.00 to 7.00 | – |
| Cc1ccsc1C(=O)Nc1cccc(-c2nn3ccccc3c2-c2ccnc(Nc3ccccc3)n2)c1 [Example 145, 3-Methyl-N-(3-{3-[2-(phenylamino)-4-pyrimidinyl]pyrazolo[1,5-a]pyridin-2-yl}phenyl)-2-thiophenecarboxamide] | +++ (A) (at least one pIC50 measurement of greater than 7 against either ErbB2 or EGFR) | > 7.00 | – |
| O=C(Nc1cccc(-c2nn3ccccc3c2-c2ccnc(Nc3cccc(F)c3)n2)c1)c1ccccc1 [Example 146] | – | 6.00 to 7.00 | +++ (B) (at least one pIC50 measurement of greater than 7 against either ErbB2 or EGFR) |
| O=C(Nc1cccc(-c2nn3ccccc3c2-c2ccnc(Nc3ccc(N4CCCCC4)c(F)c3)n2)c1)c1c(F)cccc1F [Example 147, 2,6-Difluoro-N-{3-[3-(2-{[3-fluoro-4-(1-piperidinyl)-phenyl]amino}-4-pyrimidinyl)pyrazolo[1,5-a]pyridin-2-yl]phenyl}benzamide] | +++ (A) (at least one pIC50 measurement of greater than 7 against either ErbB2 or EGFR) | 6.00 to 7.00 | – |
| O=C(Nc1cccc(-c2nn3ccccc3c2-c2ccnc(Nc3ccc(N4CCCC4)c(F)c3)n2)c1)c1c(F)cccc1F [Example 148, 2,6-Difluoro-N-{3-[3-(2-{[3-fluoro-4-(1-pyrrolidinyl)-phenyl]amino}-4-pyrimidinyl)pyrazolo[1,5-a]pyridin-2-yl]phenyl}benzamide] | +++ (A) (at least one pIC50 measurement of greater than 7 against either ErbB2 or EGFR) | > 7.00 | – |
| Cn1cccc1C(=O)Nc1cccc(-c2nn3ccccc3c2-c2ccnc(Nc3ccccc3)n2)c1 [Example 149, N-{3-[3-(2-phenylamino-4-pyrimidinyl)-pyrazolo[1,5-b]pyridin-2-yl]phenyl}-1-methyl-1H-pyrrole-2-carboxamide] | ++ (A) (at least one pIC50 measurement greater than 6 against either ErbB2 or EGFR but no measurement greater than pIC50 of 7) | 6.00 to 7.00 | – |
| COc1cc(Nc2nccc(-c3c(-c4cccc(NC(=O)c5c(F)cccc5F)c4)nn4c(C(F)(F)F)cccc34)n2)cc(OC)c1OC [Example 151, N-[3-(3-{2-[(3,4,5-Trimethoxyphenyl)amino]-4-pyrimidinyl}-7-trifluoropyrazolo[1,5-b]pyridin-2-yl)phenyl]-2,6-difluorobenzamide] | ++ (A) (at least one pIC50 measurement greater than 6 against either ErbB2 or EGFR but no measurement greater than pIC50 of 7) | 6.00 to 7.00 | – |
| O=C(Nc1cccc(-c2nn3c(C(F)(F)F)cccc3c2-c2ccnc(Nc3ccccc3)n2)c1)c1c(F)cccc1F [Example 152, N-[3-(3-{2-[Phenylamino]-4-pyrimidinyl}-7-trifluoropyrazolo[1,5-b]pyridin-2-yl)phenyl]-2,6-difluorobenzamide] | – | 6.00 to 7.00 | ++ (B) (at least one pIC50 measurement greater than 6 against either ErbB2 or EGFR but no measurement greater than pIC50 of 7) |
| O=C(Nc1cccc(-c2nn3c(C(F)(F)F)cccc3c2-c2ccnc(Nc3cccc(F)c3)n2)c1)c1c(F)cccc1F [Example 153, N-[3-(3-{2-[3-Fluorophenylamino]-4-pyrimidinyl}-7-trifluoropyrazolo[1,5-b]pyridin-2-yl)phenyl]-2,6-difluorobenzamide] | – | 6.00 to 7.00 | +++ (B) (at least one pIC50 measurement of greater than 7 against either ErbB2 or EGFR) |
| COc1ccc(Nc2nccc(-c3c(-c4cccc(NC(=O)c5c(F)cccc5F)c4)nn4c(C(F)(F)F)cccc34)n2)cc1F [Example 154, N-[3-(3-[2-{3-fluoro4-methoxyphenylamino]-4-pyrimidinyl}-7-trifluoropyrazolo[1,5-b]pyridin-2-yl)phenyl]-2,6-difluorobenzamide] | ++ (A) (at least one pIC50 measurement greater than 6 against either ErbB2 or EGFR but no measurement greater than pIC50 of 7) | 6.00 to 7.00 | – |
| Cc1cccc2c(-c3ccnc(Nc4cccc(C(F)(F)F)c4)n3)c(-c3cccc(NC(=O)c4c(F)cccc4F)c3)nn12 [Example 155, 2,6-Difluoro-N-{3-[7-methyl-3-(2-{[3-(trifluoro-methyl)phenyl]amino}pyrimidin-4-yl)pyrazolo[1,5-a]pyridin-2-yl]phenyl}benzamide] | ++ (A) (at least one pIC50 measurement greater than 6 against either ErbB2 or EGFR but no measurement greater than pIC50 of 7) | 6.00 to 7.00 | – |
